Reference: patent US6352703B1, “Compositions and methods for detecting and killing termites” (Board of Supervisors of Louisiana State University and …, priority 1997, dated 2002)

Legend:
C. formosanus = test: Trail-following bioassay; assay type: in vivo, Coptotermes formosanus Shiraki
Protocol: (§1) C. formosanus workers were used in the initial bioassay for trail-following behavior. The trail-following bioassay was conducted on two overlapped pencil circles of radius 3 cm. The circumference of each circle passed through the center of the other circle. Each sample was streaked along one of the circles with a 4 μl-micropipette on nonabsorptive paper. A solvent (control) was streaked along the overlapping circle. After the solvent evaporated, one worker was placed in the center of overlap between the two circles. The arena was covered with a red plastic container to reduce visible light and extraneous air flow. To score the worker's activity, one point was given for each continuous 3 cm traveled by a termite over a one minute period. Three replications were performed for each fraction. A new termite was used and new circles were drawn for each trial.
(§2) Trail-following bioassays with standard 2-phenoxyethanol followed procedures that were essentially identical to those for the HPLC fraction screening bioassay described above, except that each trial was replicated 10 times; and that workers and soldiers of both C. formosanus and Reticulitermes spp. were tested. Four concentrations of 2-phenoxyethanol, 0.32, 0.032, 0.0032, 0.00032 μg/cm were used in the bioassays.

Reticulitermes spp. = test: Trail-following bioassay; assay type: in vivo
Protocol: as §1, §2

Mucor spp. fungus [1] = test: Antifungal filter paper disk test, trial 2 (cornmeal agar, sealed plates); assay type: cell-based
Protocol: A second trial was conducted with filter papers treated with naphthalene, BHT, or 2,6-di-t-butyl-4-methyl-phenol (“DBP”). A fungal suspension was prepared as in the first trial. Spore concentrations were determined with a counting chamber (Petroff-Hauser, Hauser Scientific Partnership, Horsham, Pa.). Concentrations were adjusted to approximately 10^7 spores/mL. In the first trial fungus grew on SDA quickly, forming a thick mat that soon filled the entire petri dish. Therefore, in the second trial cornmeal agar (CMA, Difco Laboratories, Detroit, Mich.) was used to slow the growth of the fungus during the six-day observation period. A thin layer of the spore suspension was spread over the surface of each of 24 cornmeal agar plates using a turntable and bent glass rod, as previously described.
(§3) Filter paper disks were treated with naphthalene, BHT, or DBP at rates of 2 μg, 20 μg, or 200 μg, prepared as in the first trial. On each plate were placed four filter paper disks spaced equidistant from one another (one disk containing each of the three application rates of one of the test compounds, and one disk containing only the hexane control). Each plate was then covered and sealed with parafilm to reduce the release of volatile compounds. The concentration of naphthalene in the headspace was 0.04 μg/cm^3; except in trial 3 below, in which the concentration was 34.6 μg/cm^3, about 700 times the concentration we have observed in termite nest materials. The growth of fungus on and around each filter paper disk was recorded three, four, and five days after treatment. The experiment was then repeated, increasing the rates of naphthalene, BHT, and DBP to 200 μg, 600 μg, and 1000 μg (trial 3).
(§4) Fungal growth on each filter paper disk was recorded by making tracings of the disks, inking in areas with visible fungal growth. The fraction of each disk covered by fungus was measured by making photocopy enlargements of these drawings, cutting out the enlarged disks, weighing the entire circle, cutting out the inked areas of the circle (corresponding to fungal growth), and weighing the latter. The fraction of each circle covered with fungus was then calculated as the ratio of these weights. (The weight of the photocopy toner was negligible.)
(§5) Coverage of filter paper disks was analyzed by the ANOVA procedure (SAS Institute, Version 6.11, Cary, N.C.). Tukey's Studentized Range (HSD) Test was used for comparison of mean separations (α=0.05).

Mucor spp. fungus [2] = test: Antifungal filter paper disk test, trial 3 (cornmeal agar, sealed plates, increased rates); assay type: cell-based
Protocol: A second trial was conducted with filter papers treated with naphthalene, BHT, or 2,6-di-t-butyl-4-methyl-phenol (“DBP”). A fungal suspension was prepared as in the first trial. Spore concentrations were determined with a counting chamber (Petroff-Hauser, Hauser Scientific Partnership, Horsham, Pa.). Concentrations were adjusted to approximately 10^7 spores/mL. In the first trial fungus grew on SDA quickly, forming a thick mat that soon filled the entire petri dish. […] A thin layer of the spore suspension was spread over the surface of each of 24 cornmeal agar plates using a turntable and bent glass rod, as previously described.
as §3, with “The growth of fungus on and around each filter paper disk was recorded three, four, and five days after treatment.” left out
as §4, §5

Mucor spp. fungus [3] = test: Antifungal filter paper disk test, trial 1 (Sabouraud dextrose agar); assay type: cell-based
Protocol: Mucor was isolated from a Formosan termite nest in our laboratory, a nest originally collected from a cottonwood tree in New Orleans, La. The fungus comprised a white mat that covered large areas of the nest that had been exposed to air and water. Fungus was scraped from the nest and suspended in distilled, de-ionized water with a Pasteur pipette. This suspension was streaked on Sabouraud dextrose agar (“SDA”) (Difco Laboratories, Detroit, Mich.) in 100×15 mm plates containing 20 mL SDA. Pure cultures were obtained from individual colonies on these plates as needed. Cultures were maintained on SDA plates in a 27° C. incubator without light until used.
Filter paper disks (Whatman #1, 1.5 cm) were treated with naphthalene, butylated hydroxytoluene (BHT), dioctyl phthalate, or adipic dioctyl ester, at rates of 2 μg, 20 μg, or 200 μg, dissolved in 100 μL hexane. Controls were treated with hexane alone. For each treatment, just prior to testing for antifungal properties, 1 mL of the hexane solution and ten filter paper disks were placed in a vial, and N2 was used to evaporate the hexane.
A suspension was prepared by scraping Mucor conidia (spores) from the culture plates, and mixing into distilled, deionized water with a Pasteur pipette. A thin layer of this suspension was spread over the surface of each of 130 SDA plates by placing each plate onto an inoculation turntable (Fisher Scientific, Hampton, N.H.), pipetting 0.2 mL of the suspension into the center of the plate, spinning the turntable, and spreading the suspension onto the agar with a bent glass rod. The plates were allowed to dry for two hours. A treated filter paper disk was then placed in the center of each plate (10 plates/treatment), and the plates were incubated at 27° C. The extent to which each filter paper disk was covered by fungus was determined by visual inspection (by the method described in greater detail below) after four, five, and six days.
as §4, §5

[4] = trial 2, 0 μg disk (hexane only) on the same sealed plate as the compound's treated disks
[5] = trial 3, 0 μg disk (hexane only) on the same sealed plate as the compound's treated disks

## OCCOc1ccccc1 [2-phenoxyethanol]
C. formosanus; 0.00032 μg/cm
  Trail-following behavior: Limited trail-following activity
C. formosanus; C. formosanus workers and soldiers, 0.32, 0.032 and 0.0032 μg/cm
  Trail-following behavior: elicited trail-following behaviors
Reticulitermes spp.; 0.00032 μg/cm
  Trail-following behavior: Limited trail-following activity
Reticulitermes spp.; Reticulitermes spp. workers and soldiers, 0.32, 0.032 and 0.0032 μg/cm
  Trail-following behavior: elicited trail-following behaviors

## Cc1cc(C(C)(C)C)c(O)c(C(C)(C)C)c1 [DBP, 2,6-di-t-butyl-4-methyl-phenol]
Mucor spp. fungus [1]; [4]
  Fraction Covered, Day 3 (mean percentage of filter paper disk surface covered by fungus): 96%
  Fraction Covered, Day 4 (mean percentage of filter paper disk surface covered by fungus): 100%
  Fraction Covered, Day 5 (mean percentage of filter paper disk surface covered by fungus): 100%
Mucor spp. fungus [1]; trial 2, rate 2 μg per disk
  Fraction Covered, Day 3 (mean percentage of filter paper disk surface covered by fungus): 98%
  Fraction Covered, Day 4 (mean percentage of filter paper disk surface covered by fungus): 99%
  Fraction Covered, Day 5 (mean percentage of filter paper disk surface covered by fungus): 99%
Mucor spp. fungus [1]; trial 2, rate 20 μg per disk
  Fraction Covered, Day 3 (mean percentage of filter paper disk surface covered by fungus): 92%
  Fraction Covered, Day 4 (mean percentage of filter paper disk surface covered by fungus): 95%
  Fraction Covered, Day 5 (mean percentage of filter paper disk surface covered by fungus): 98%
Mucor spp. fungus [1]; trial 2, rate 200 μg per disk
  Fraction Covered, Day 3 (mean percentage of filter paper disk surface covered by fungus): 81%
  Fraction Covered, Day 4 (mean percentage of filter paper disk surface covered by fungus): 91%
  Fraction Covered, Day 5 (mean percentage of filter paper disk surface covered by fungus): 99%
Mucor spp. fungus [2]; [5]
  Fraction Covered, Day 3 (mean percentage of filter paper disk surface covered by fungus): 40%
  Fraction Covered, Day 4 (mean percentage of filter paper disk surface covered by fungus): 100%
  Fraction Covered, Day 5 (mean percentage of filter paper disk surface covered by fungus): 100%
Mucor spp. fungus [2]; trial 3, fourth day
  Fungal coverage of treated disks: ~100%
Mucor spp. fungus [2]; trial 3, rate 200 μg per disk
  Fraction Covered, Day 3 (mean percentage of filter paper disk surface covered by fungus): 0%
  Fraction Covered, Day 4 (mean percentage of filter paper disk surface covered by fungus): 94%
  Fraction Covered, Day 5 (mean percentage of filter paper disk surface covered by fungus): 93%
Mucor spp. fungus [2]; trial 3, rate 600 μg per disk
  Fraction Covered, Day 3 (mean percentage of filter paper disk surface covered by fungus): 1%
  Fraction Covered, Day 4 (mean percentage of filter paper disk surface covered by fungus): 100%
  Fraction Covered, Day 5 (mean percentage of filter paper disk surface covered by fungus): 100%
Mucor spp. fungus [2]; trial 3, rate 1000 μg per disk
  Fraction Covered, Day 3 (mean percentage of filter paper disk surface covered by fungus): 0%
  Fraction Covered, Day 4 (mean percentage of filter paper disk surface covered by fungus): 91%
  Fraction Covered, Day 5 (mean percentage of filter paper disk surface covered by fungus): 97%

## CCCCCCCCOC(=O)CCCCC(=O)OCCCCCCCC [Adipic dioctyl ester, adipic dioctyl ester]
Mucor spp. fungus [3]; trial 1, rate 2 μg per disk
  Fraction Covered, Day 4 (mean percentage of filter paper disk surface covered by fungus): 44%
  Fraction Covered, Day 5 (mean percentage of filter paper disk surface covered by fungus): 83%
  Fraction covered, Day 6 (mean percentage of filter paper disk surface covered by fungus): 94%
Mucor spp. fungus [3]; trial 1, rate 20 μg per disk
  Fraction Covered, Day 4 (mean percentage of filter paper disk surface covered by fungus): 20%
  Fraction Covered, Day 5 (mean percentage of filter paper disk surface covered by fungus): 80%
  Fraction covered, Day 6 (mean percentage of filter paper disk surface covered by fungus): 62%
Mucor spp. fungus [3]; trial 1, rate 200 μg per disk
  Fraction Covered, Day 4 (mean percentage of filter paper disk surface covered by fungus): 20%
  Fraction Covered, Day 5 (mean percentage of filter paper disk surface covered by fungus): 75%
  Fraction covered, Day 6 (mean percentage of filter paper disk surface covered by fungus): 91%

## CCCCCCCCOC(=O)c1ccccc1C(=O)OCCCCCCCC [Dioctyl phthalate, dioctyl phthalate]
Mucor spp. fungus [3]; trial 1, rate 2 μg per disk
  Fraction Covered, Day 4 (mean percentage of filter paper disk surface covered by fungus): 67%
  Fraction Covered, Day 5 (mean percentage of filter paper disk surface covered by fungus): 78%
  Fraction covered, Day 6 (mean percentage of filter paper disk surface covered by fungus): 89%
Mucor spp. fungus [3]; trial 1, rate 20 μg per disk
  Fraction Covered, Day 4 (mean percentage of filter paper disk surface covered by fungus): 32%
  Fraction Covered, Day 5 (mean percentage of filter paper disk surface covered by fungus): 49%
  Fraction covered, Day 6 (mean percentage of filter paper disk surface covered by fungus): 88%
Mucor spp. fungus [3]; trial 1, rate 200 μg per disk
  Fraction Covered, Day 4 (mean percentage of filter paper disk surface covered by fungus): 57%
  Fraction Covered, Day 5 (mean percentage of filter paper disk surface covered by fungus): 69%
  Fraction covered, Day 6 (mean percentage of filter paper disk surface covered by fungus): 82%
